Measured values from US3953497A, “2,4,6-Triiodo-5-methoxyacetamido-N-methylisophthalamic acid and salts, acyl halides and esters thereof” (Mallinckrodt, Inc., priority 1974, dated 1976).

Experiments:
[1] = Solubility of the sodium salt in water; type: physicochemical
Description: 2,4,6-Triiodo-5-methoxyacetamido-N-methylisophthalamic acid (6.005 g.) was dissolved in water with NaOH solution at pH 7.4 to form a supersaturated solution (7.0 ml.). When the solution was allowed to stand at room temperature overnight, crystallization occurred. The crystals were collected and dried.
The sodium salt (2.71 g.) was then dissolved in water to form an 82% w/v solution (3.3 ml.). After the solution was allowed to stand at 24° overnight some crystallization occurred. The solution was stirred and the supernatant was taken (by centrifugation) for specific gravity measurement (sp. gr. 1.43) and for water determination (found, […] by Karl Fischer method). The solubility of the sodium salt in water was therefore determined to be about 70% w/v at 24°.

rats = conditions: Priewe et al., DAS 1,129,260/1962; cited from earlier work
dogs = conditions: Pfeiffer et al., DOS 2,118,219/1972; cited from earlier work
man = conditions: Pfeiffer et al., DOS 2,118,219/1972; cited from earlier work
[2] = test system: Swiss Albino mice (Charles River); test: Acute Intravenous Toxicity Studies in Mice (LD50); type: in vivo; conditions: lateral tail vein, 1 ml/min, solutions containing 28.27% of iodine, seven day observation
Description: (§1) The techniques utilized are outlined below.
I. Acute Intravenous Toxicity Studies in Mice
Swiss Albino mice (Charles River) were dosed in the lateral tail vein with solutions of the iodinated compound containing 28.27% of iodine, injected at the rate of 1 ml/min. […] The LD50 values were calculated by the method of Litchfield and Wilcoxon (J. of Pharmac. and Exptl. Therap. 96:99-113, 1949).

in vivo [3] = conditions: mouse, intracerebral, fixed volumes of various concentrations, seven day observation, meglumine salt, read-out: LD50 of Meglumine Salt, Intracerebral (Mice)
From the text: as §1
II. Intracerebral Toxicity in Mice
Swiss Albino mice (Charles River) were used. […] The animals were observed immediately after injections and daily throughout a seven day observation period.

in vivo [4] = conditions: rat, intracisternal, two day observation, meglumine salt, read-out: LD50 of Meglumine Salt, Intracisternal (Rats)
From the text: as §1
III. Intracisternal Toxicity in Rats
Sprague Dawley (Carworth) rats were used. […] After dosing, the animals were housed individually, and observed for immediate reactions and periodically for a two day observation period.

**Q.** With CNC(=O)c1c(I)c(NC(=O)COC)c(I)c(C(=O)[O-])c1I.[Na+] as the compound, how does the solubility thermodynamic ([1]; 24°, sodium salt, from specific gravity and Karl Fischer water of supernatant) read?
**A.** Its solubility thermodynamic is ~700 mg/mL.

**Q.** What about the “temperature dependence of solubility” value ([1]; sodium salt in water) of the same compound?
**A.** Its value is “highly temperature dependent”.

**Q.** Which “LD50 (i.v. in rats)” value (rats) does the source give for COCC(=O)Nc1c(I)c(NC(C)=O)c(I)c(C(=O)O)c1I [3-acetamido-5-methoxyacetamido-2,4,6-triiodobenzoic acid] here?
**A.** The value was 16 g/kg.

**Q.** What about the “circulatory disturbances in dogs” value (dogs) of the same compound?
**A.** Its value is “strong circulatory disturbances”.

**Q.** And the “circulatory disturbances in man” value (man)?
**A.** The value was “strong circulatory disturbances”.

**Q.** For CNC(=O)c1c(I)c(NC(C)=O)c(I)c(C(=O)O)c1I [Iothalamic Acid, 5-acetamido-2,4,6-triiodo-N-methylisophthalamic acid, reference compound], which “LD50 of Meglumine Salt, I.V. (Mice)” value [2] is on record?
**A.** The value was 5742 mg. contained iodine/kg. anima.

**Q.** What does the source list for CNC(=O)c1c(I)c(NC(=O)COC)c(I)c(C(=O)O)c1I [meglumine 2,4,6-triiodo-5-methoxyacetamido-N-methylisophthalamate]?
**A.** LD50 of Meglumine Salt, I.V. (Mice) [2]: 6700 mg. contained iodine/kg. anima; LD50 at 168 h (in vivo [3]): 700 mg/kg; LD50 at 48 h (in vivo [4]): 40 mg/kg
